Results as given in BindingDB's records for doi:10.1016/0167-0115(94)90537-1 (Universit&Eacute, 1994).
Square brackets hold non-standard residues; d marks the D form. Peptide text beside a SMILES is read from it. ξ: configuration not given here. Ile(3ξ) = CCC(C)[C@H](N)C(=O)O

Target: T1, VIP peptides (Rattus norvegicus, UniProt P01283)
T1 sequence (P01283 whole entry): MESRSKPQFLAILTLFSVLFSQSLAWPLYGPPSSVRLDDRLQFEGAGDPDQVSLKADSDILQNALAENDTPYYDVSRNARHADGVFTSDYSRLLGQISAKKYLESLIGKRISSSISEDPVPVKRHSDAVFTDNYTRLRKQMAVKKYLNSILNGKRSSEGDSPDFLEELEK

| Structure (SMILES) | Ki |
| --- | --- |
| CCC(C)[C@H](NC(=O)CNC(=O)[C@@H](N)CC(=O)O)C(=O)N[C@@H](Cc1ccccc1)C(=O)N[C@H](C(=O)N[C@@H](CC(=O)O)C(=O)N[C@@H](CO)C(=O)N[C@@H](Cc1ccc(O)cc1)C(=O)N[C@@H](CO)C(=O)N[C@@H](CCCN=C(N)N)C(=O)N[C@@H](Cc1ccc(O)cc1)C(=O)N[C@@H](CCCN=C(N)N)C(=O)N[C@@H](CCCCN)C(=O)N[C@@H](CCC(N)=O)C(=O)N[C@@H](CCSC)C(=O)N[C@@H](C)C(=O)N[C@H](C(=O)N[C@@H](CCCCN)C(=O)N[C@@H](CCCCN)C(=O)N[C@@H](Cc1ccc(O)cc1)C(=O)N[C@@H](CC(C)C)C(=O)N[C@@H](C)C(=O)N[C@@H](C)C(=O)N[C@H](C(=O)N[C@@H](CC(C)C)C(N)=O)C(C)C)C(C)C)[C@@H](C)O (stereo not given in full) [PACAP(3-27)] (H-DG[Ile(3ξ)]FTDSYSRYRKQMAVKKYLAAVL-NH2) | 2000 nM |
| CC[C@H](C)[C@H](NC(=O)[C@H](CO)NC(=O)[C@H](CC(N)=O)NC(=O)[C@H](CC(C)C)NC(=O)[C@H](Cc1ccc(O)cc1)NC(=O)[C@H](CCCCN)NC(=O)[C@H](CCCCN)NC(=O)[C@@H](NC(=O)[C@H](C)NC(=O)[C@H](CCSC)NC(=O)[C@H](CCC(N)=O)NC(=O)[C@H](CCCCN)NC(=O)[C@H](CCCN=C(N)N)NC(=O)[C@H](CC(C)C)NC(=O)[C@H](CCCN=C(N)N)NC(=O)[C@@H](NC(=O)[C@H](Cc1ccc(O)cc1)NC(=O)[C@H](CC(N)=O)NC(=O)[C@H](CC(=O)O)NC(=O)[C@@H](NC(=O)[C@H](Cc1ccccc1)NC(=O)[C@@H](NC(=O)[C@H](C)NC(=O)[C@@H](N)CC(=O)O)C(C)C)[C@@H](C)O)[C@@H](C)O)C(C)C)C(=O)N[C@@H](CC(C)C)C(=O)N[C@@H](CC(N)=O)C(N)=O [VIP(3-28)] (H-DAVFTDNYTRLRKQMAVKKYLNSILN-NH2) | 3000 nM |
| CC[C@H](C)[C@H](NC(=O)[C@H](CO)NC(=O)[C@H](CC(N)=O)NC(=O)[C@H](CC(C)C)NC(=O)[C@H](Cc1ccc(O)cc1)NC(=O)[C@H](CCCCN)NC(=O)[C@H](CCCCN)NC(=O)[C@@H](NC(=O)[C@H](C)NC(=O)[C@H](CCSC)NC(=O)[C@H](CCC(N)=O)NC(=O)[C@H](CCCCN)NC(=O)[C@H](CCCN=C(N)N)NC(=O)[C@H](CC(C)C)NC(=O)[C@H](CCCN=C(N)N)NC(=O)[C@@H](NC(=O)[C@H](Cc1ccc(O)cc1)NC(=O)[C@H](CC(N)=O)NC(=O)[C@H](CC(=O)O)NC(=O)[C@@H](NC(=O)[C@H](Cc1ccccc1)NC(=O)[C@@H](NC(=O)[C@H](C)NC(=O)[C@H](CC(=O)O)NC(=O)[C@H](CO)NC(=O)[C@H](N)Cc1cnc[nH]1)C(C)C)[C@@H](C)O)[C@@H](C)O)C(C)C)C(=O)N[C@@H](CC(C)C)C(=O)N[C@@H](CC(N)=O)C(N)=O [VIP [D-His1]] | 200 nM |
| CC[C@H](C)[C@H](NC(=O)[C@H](CO)NC(=O)[C@H](CC(N)=O)NC(=O)[C@H](CC(C)C)NC(=O)[C@H](Cc1ccc(O)cc1)NC(=O)[C@H](CCCCN)NC(=O)[C@H](CCCCN)NC(=O)[C@@H](NC(=O)[C@H](C)NC(=O)[C@H](CCSC)NC(=O)[C@H](CCC(N)=O)NC(=O)[C@H](CCCCN)NC(=O)[C@H](CCCN=C(N)N)NC(=O)[C@H](CC(C)C)NC(=O)[C@H](CCCN=C(N)N)NC(=O)[C@@H](NC(=O)[C@H](Cc1ccc(O)cc1)NC(=O)[C@H](CC(N)=O)NC(=O)[C@H](CC(=O)O)NC(=O)[C@@H](NC(=O)[C@H](Cc1ccccc1)NC(=O)[C@@H](NC(=O)[C@H](C)NC(=O)[C@H](CC(=O)O)NC(=O)[C@H](CO)NC(=O)[C@H](Cc1cnc[nH]1)NC(C)=O)C(C)C)[C@@H](C)O)[C@@H](C)O)C(C)C)C(=O)N[C@@H](CC(C)C)C(=O)N[C@@H](CC(N)=O)C(N)=O [Acetyl-His1-VIP] | 15 nM |
| [C][C][C]([C])[C@H]([N]C(=O)[C][N]C(=O)[C@H]([C][C]C([O])=O)[N]C(=O)[C@@H]([N])[C][O])C(=O)[N][C@@H]([C]c1ccccc1)C(=O)[N][C@H](C(=O)[N][C@@H]([C]C([O])=O)C(=O)[N][C@@H]([C][O])C(=O)[N][C@@H]([C]c1ccc([O])cc1)C(=O)[N][C@@H]([C][O])C(=O)[N][C@@H]([C][C][C]N=C([N])[N])C(=O)[N][C@@H]([C]c1ccc([O])cc1)C(=O)[N][C@@H]([C][C][C]N=C([N])[N])C(=O)[N][C@@H]([C][C][C][C][N])C(=O)[N][C@@H]([C][C]C([N])=O)C(=O)[N][C@@H]([C][C]S[C])C(=O)[N][C@@H]([C])C(=O)[N][C@@H]([C]([C])[C])C(=O)[N][C@@H]([C][C][C][C][N])C(=O)[N][C@@H]([C][C][C][C][N])C(=O)[N][C@@H]([C]c1ccc([O])cc1)C(=O)[N][C@@H]([C][C]([C])[C])C(=O)[N][C@@H]([C])C(=O)[N][C@@H]([C])C(=O)[N][C@@H]([C]([C])[C])C(=O)[N][C@@H]([C][C]([C])[C])C([N])=O)[C@@H]([C])[O] [PACAP(2-27)] | 30 nM |

Next, values leading:

| Ki | Structure (SMILES) |
| --- | --- |
| 800 nM | CCC(C)[C@H](NC(=O)CN)C(=O)N[C@@H](Cc1ccccc1)C(=O)N[C@H](C(=O)N[C@@H](CC(=O)O)C(=O)N[C@@H](CO)C(=O)N[C@@H](Cc1ccc(O)cc1)C(=O)N[C@@H](CO)C(=O)N[C@@H](CCCN=C(N)N)C(=O)N[C@@H](Cc1ccc(O)cc1)C(=O)N[C@@H](CCCN=C(N)N)C(=O)N[C@@H](CCCCN)C(=O)N[C@@H](CCC(N)=O)C(=O)N[C@@H](CCSC)C(=O)N[C@@H](C)C(=O)N[C@H](C(=O)N[C@@H](CCCCN)C(=O)N[C@@H](CCCCN)C(=O)N[C@@H](Cc1ccc(O)cc1)C(=O)N[C@@H](CC(C)C)C(=O)N[C@@H](C)C(=O)N[C@@H](C)C(=O)N[C@H](C(=O)N[C@@H](CC(C)C)C(=O)NCC(=O)N[C@@H](CCCCN)C(=O)N[C@@H](CCCN=C(N)N)C(=O)N[C@@H](Cc1ccc(O)cc1)C(=O)N[C@@H](CCCCN)C(=O)N[C@@H](CCC(N)=O)C(=O)N[C@@H](CCCN=C(N)N)C(=O)N[C@H](C(=O)N[C@@H](CCCCN)C(=O)N[C@@H](CC(N)=O)C(=O)N[C@@H](CCCCN)C(N)=O)C(C)C)C(C)C)C(C)C)[C@@H](C)O (stereo not given in full) [PACAP(4-38)] (H-G[Ile(3ξ)]FTDSYSRYRKQMAVKKYLAAVLGKRYKQRVKNK-NH2) |
| 800 nM | CCC(C)[C@H](NC(=O)CNC(=O)[C@@H](N)CC(=O)O)C(=O)N[C@@H](Cc1ccccc1)C(=O)N[C@H](C(=O)N[C@@H](CC(=O)O)C(=O)N[C@@H](CO)C(=O)N[C@@H](Cc1ccc(O)cc1)C(=O)N[C@@H](CO)C(=O)N[C@@H](CCCN=C(N)N)C(=O)N[C@@H](Cc1ccc(O)cc1)C(=O)N[C@@H](CCCN=C(N)N)C(=O)N[C@@H](CCCCN)C(=O)N[C@@H](CCC(N)=O)C(=O)N[C@@H](CCSC)C(=O)N[C@@H](C)C(=O)N[C@H](C(=O)N[C@@H](CCCCN)C(=O)N[C@@H](CCCCN)C(=O)N[C@@H](Cc1ccc(O)cc1)C(=O)N[C@@H](CC(C)C)C(=O)N[C@@H](C)C(=O)N[C@@H](C)C(=O)N[C@H](C(=O)N[C@@H](CC(C)C)C(=O)NCC(=O)N[C@@H](CCCCN)C(=O)N[C@@H](CCCN=C(N)N)C(=O)N[C@@H](Cc1ccc(O)cc1)C(=O)N[C@@H](CCCCN)C(=O)N[C@@H](CCC(N)=O)C(=O)N[C@@H](CCCN=C(N)N)C(=O)N[C@H](C(=O)N[C@@H](CCCCN)C(=O)N[C@@H](CC(N)=O)C(=O)N[C@@H](CCCCN)C(N)=O)C(C)C)C(C)C)C(C)C)[C@@H](C)O (stereo not given in full) [PACAP(3-38)] (H-DG[Ile(3ξ)]FTDSYSRYRKQMAVKKYLAAVLGKRYKQRVKNK-NH2) |
| 300 nM | CC[C@H](C)[C@H](NC(=O)CNC(=O)[C@H](CC(=O)O)NC(=O)[C@H](CO)NC(=O)[C@@H](N)Cc1ccccc1)C(=O)N[C@@H](Cc1ccccc1)C(=O)N[C@H](C(=O)N[C@@H](CC(=O)O)C(=O)N[C@@H](CO)C(=O)N[C@@H](Cc1ccc(O)cc1)C(=O)N[C@@H](CO)C(=O)N[C@@H](CCCN=C(N)N)C(=O)N[C@@H](Cc1ccc(O)cc1)C(=O)N[C@@H](CCCN=C(N)N)C(=O)N[C@@H](CCCCN)C(=O)N[C@@H](CCC(N)=O)C(=O)N[C@@H](CCSC)C(=O)N[C@@H](C)C(=O)N[C@H](C(=O)N[C@@H](CCCCN)C(=O)N[C@@H](CCCCN)C(=O)N[C@@H](Cc1ccc(O)cc1)C(=O)N[C@@H](CC(C)C)C(=O)N[C@@H](C)C(=O)N[C@@H](C)C(=O)N[C@H](C(=O)N[C@@H](CC(C)C)C(N)=O)C(C)C)C(C)C)[C@@H](C)O [[Phe1]PACAP(1-27)] |
| 30 nM | CC[C@H](C)[C@H](NC(=O)[C@H](CO)NC(=O)[C@H](CC(N)=O)NC(=O)[C@H](CC(C)C)NC(=O)[C@H](Cc1ccc(O)cc1)NC(=O)[C@H](CCCCN)NC(=O)[C@H](CCCCN)NC(=O)[C@@H](NC(=O)[C@H](C)NC(=O)[C@H](CCSC)NC(=O)[C@H](CCC(N)=O)NC(=O)[C@H](CCCCN)NC(=O)[C@H](CCCN=C(N)N)NC(=O)[C@H](CC(C)C)NC(=O)[C@H](CCCN=C(N)N)NC(=O)[C@@H](NC(=O)[C@H](Cc1ccc(O)cc1)NC(=O)[C@H](CC(N)=O)NC(=O)[C@H](CC(=O)O)NC(=O)[C@@H](NC(=O)[C@H](Cc1ccccc1)NC(=O)[C@@H](NC(=O)[C@H](C)NC(=O)[C@H](CC(=O)O)NC(=O)[C@H](CO)NC(=O)[C@@H](N)Cc1ccccc1)C(C)C)[C@@H](C)O)[C@@H](C)O)C(C)C)C(=O)N[C@@H](CC(C)C)C(=O)N[C@@H](CC(N)=O)C(N)=O [[Phe1]VIP] (H-FSDAVFTDNYTRLRKQMAVKKYLNSILN-NH2) |
| 80 nM | CCC(C)[C@H](NC(=O)CNC(=O)[C@H](CC(=O)O)NC(=O)[C@@H](N)CO)C(=O)N[C@@H](Cc1ccccc1)C(=O)N[C@H](C(=O)N[C@@H](CC(=O)O)C(=O)N[C@@H](CO)C(=O)N[C@@H](Cc1ccc(O)cc1)C(=O)N[C@@H](CO)C(=O)N[C@@H](CCCN=C(N)N)C(=O)N[C@@H](Cc1ccc(O)cc1)C(=O)N[C@@H](CCCN=C(N)N)C(=O)N[C@@H](CCCCN)C(=O)N[C@@H](CCC(N)=O)C(=O)N[C@@H](CCSC)C(=O)N[C@@H](C)C(=O)N[C@H](C(=O)N[C@@H](CCCCN)C(=O)N[C@@H](CCCCN)C(=O)N[C@@H](Cc1ccc(O)cc1)C(=O)N[C@@H](CC(C)C)C(=O)N[C@@H](C)C(=O)N[C@@H](C)C(=O)N[C@H](C(=O)N[C@@H](CC(C)C)C(=O)NCC(=O)N[C@@H](CCCCN)C(=O)N[C@@H](CCCN=C(N)N)C(=O)N[C@@H](Cc1ccc(O)cc1)C(=O)N[C@@H](CCCCN)C(=O)N[C@@H](CCC(N)=O)C(=O)N[C@@H](CCCN=C(N)N)C(=O)N[C@H](C(=O)N[C@@H](CCCCN)C(=O)N[C@@H](CC(N)=O)C(=O)N[C@@H](CCCCN)C(N)=O)C(C)C)C(C)C)C(C)C)[C@@H](C)O (stereo not given in full) [PACAP(2-38)] (H-SDG[Ile(3ξ)]FTDSYSRYRKQMAVKKYLAAVLGKRYKQRVKNK-NH2) |
